Legend:
[1] = system: high fat fodder obese C57BL/6J mice; assay: Oral glucose tolerance test in obese mice; format: in vivo; conditions: FIG. 2, in words
Description: The abscissa represents blood-sampling time points, 0 min, 30 min, 60 min, 120 min after orally given with glucose; the ordinate represents the corresponding blood glucose level (mmol/L).
(§1) 3 week-old male C57BL/6J mice were chosen as experiment animals, 15 of which were randomly selected to feed with a standard fodder, and the remains were allowed to feed with a high fat fodder, with each of the mice being marked by ear-cutting. The body weights and fodder intake of the mice were weighed every week. […] After the administration of the inventive compounds for four weeks, the effects of the medicaments on the levels of blood lipid and blood glucose, body weight, and fodder intake in the animals were observed, while a glucose tolerance test was performed to investigate the effects of the medicaments on the glucose tolerance in the animals.

[2] = Pharmacokinetics: plasma concentration-time curve; format: in vivo; conditions: SD rats, gastric lavage, 50, 10 and 2 mg/kg
Description: The dosing volume was 10 ml/kg, and blood samples of 0.4-0.5 ml were taken from the vena orbitalis posterior of the waken animals at different time points post-gastric lavage and centrifuged at 5000 rpm for 10 min. 200 μL of plasma sample was precisely measured, then supplemented with 200 μL acetonitrile, vortexed to evenness, left stand for 5 min, and centrifuged (14000 rpm, 5 min). The supernatant was collected and then centrifuged again (14000 rpm, 5 min). The resulting supernatant was gathered and subjected to HPLC injection. Time points for blood sampling were respectively: 0, 0.5, 1, 2, 4, 6, 8, 10, 12, 24, 36, 48 and 72 h, and the peak area for each time point was the average of those obtained from 6 rats at the same time point. Plasma concentrations were calculated and the medicament concentration-time curve was plotted.

[3] = system: high fat fodder obese C57BL/6J mice; assay: High fat fodder obese mice: body weight and food intake; format: in vivo; conditions: for effect on the food intake of the animals / body weight of the animals: in words; for body weight of the animals: Table 4 and FIG. 1
Text: as §1

[4] = Tissue distribution; format: in vivo, SD rats; conditions: distribution in organs, SD rats, 10 mg/kg
Description: 18 of SD rats were fasting for 16 h with free access for water, assigned them into 3 groups with 6 animals/group with a female-to-male ratio of 1:1; they were dosed with HS060098 (10 mg/kg), then the animals were sacrificed at 1, 10, and 24 h after dosing, and the heart, liver, spleen, lung, kidney in each animal were removed rapidly. The tainted blood on the surface of the organ was washed off immediately with physiological saline. The tissue from the organ was dissected apart, washed thoroughly, blotted off, weighed, supplemented with physiological saline at 400 mg/ml, homogenized in an ice bath for 1 min, and centrifuged at 3750 rpm for 20 min. 400 μl of the supernatant was pipetted precisely, followed by addition of 40 μl of an inner standard (HS060001 used as the inner standard with a molar concentration of 5 mmol/L), diluted with 3 ml of purified water, vortexed to homogeneity, and loaded onto a column (SPE C18 column was firstly washed with 3 ml of purified water, and sequentially with 3 ml of 10% methanol for activation). The column was rinsed with 3 ml of purified water at 1 ml/min, and then eluted with 3 ml of a elutant (methanol: purified water=9:1). The eluate was collected and blow-dried under a nitrogen flow at 45° C. The residue was dissolved in 400 μl of acetonitrile and then a HPLC insert was placed and followed by injection of the sample.

[5] = system: Macaca rhesus model of hyperlipidemia; assay: Macaca rhesus model of hyperlipidemia, hematological indicators and ELISA; format: in vivo; conditions: three months of administration
Text: Afterwards, efficacy of the medicament of the A-3 was confirmed in the Macaca rhesus model of hyperlipidemia. After three months of administration, blood samples were taken from the femoral vein for the determination of hematological indicators, and the determination of the insulin, apolipoprotein A-1 (apoA-1) and apolipoprotein B-100 (apoB-100) by ELISA.

[6] = system: high fat fodder obese C57BL/6J mice; assay: High fat fodder obese mice: levels of blood lipid and blood glucose; format: in vivo; parameters: HDL / GLU / TC / TG: unit not given here; conditions: for GLU / HDL / TC / TG: mean ± s, n 5; for levels of TG and GLU in the sera from the model animals: in words
Text: as §1, with “[…],” for “After the administration of the inventive compounds for four weeks,”

[7] = molecular target: T1, PPARδ (Homo sapiens, UniProt Q03181); assay: In vitro screening of nuclear receptor agonist: luciferase reporter gene assay in HepG2 cells; format: cell-based; conditions: RXR/PPARδ luciferase reporter gene, 24 h treatment
T1 construct: expressed in transfected cells; host or cells: HepG2 (human hepatocarcinoma, ATCC)
T1 sequence (Q03181 1-441): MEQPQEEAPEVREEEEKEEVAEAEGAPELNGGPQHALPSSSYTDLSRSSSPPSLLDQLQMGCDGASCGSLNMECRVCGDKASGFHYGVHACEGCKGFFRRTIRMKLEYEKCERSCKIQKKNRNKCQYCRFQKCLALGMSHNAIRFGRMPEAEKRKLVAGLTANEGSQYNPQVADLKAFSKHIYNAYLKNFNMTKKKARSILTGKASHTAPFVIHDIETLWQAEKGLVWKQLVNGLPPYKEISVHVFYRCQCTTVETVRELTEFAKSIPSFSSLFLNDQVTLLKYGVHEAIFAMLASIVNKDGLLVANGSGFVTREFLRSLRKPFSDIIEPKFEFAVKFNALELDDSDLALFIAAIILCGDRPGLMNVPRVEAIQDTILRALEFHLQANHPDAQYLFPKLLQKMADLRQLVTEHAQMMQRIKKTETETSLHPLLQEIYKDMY
T1 sequence (P19793 1-462 partner): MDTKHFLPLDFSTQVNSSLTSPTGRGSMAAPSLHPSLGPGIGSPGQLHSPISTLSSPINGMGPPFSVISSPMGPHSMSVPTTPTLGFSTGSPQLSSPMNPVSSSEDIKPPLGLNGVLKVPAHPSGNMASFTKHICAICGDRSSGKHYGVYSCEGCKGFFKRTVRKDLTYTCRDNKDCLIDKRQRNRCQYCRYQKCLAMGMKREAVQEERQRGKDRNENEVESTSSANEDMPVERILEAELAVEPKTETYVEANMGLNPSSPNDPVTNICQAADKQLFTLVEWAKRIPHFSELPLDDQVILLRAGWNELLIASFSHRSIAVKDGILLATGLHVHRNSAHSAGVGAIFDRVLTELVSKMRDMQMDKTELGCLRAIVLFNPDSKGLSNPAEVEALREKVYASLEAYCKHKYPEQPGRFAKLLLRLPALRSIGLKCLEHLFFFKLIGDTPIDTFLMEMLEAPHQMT
Text: Using a reporter gene protocol, the screening model for screening a nuclear receptor agonist in a living cell is designed on a basis of the principal that an activated nuclear receptor can activate transcription of its downstream gene. A reporter gene plasmid is constructed, in which the DNA binding sequence for the nuclear receptor (NRE) is inserted upstream of the luciferase gene, so that the expression of the luciferase gene is placed under the control of the nuclear receptor. Then, the reporter gene plasmid and the nuclear receptor are simultaneously transferred into a cell, and the nuclear receptor is activated when the nuclear receptor agonist is present in the cell culture medium. Then the activated receptor is able to induce the expression of the luciferase gene, while the amount of the luciferase can be determined through its luminous substrate. In this way, the intensity of activation by the compound on the nuclear receptor could be known by observing the luminescence intensity.
The specific operation is described as follows:
The experiment reagents: the compounds to be tested (20 mM, in DMSO, stored at −80° C.).
The hepatocarcinoma cell HepG2 (from ATCC, American Type Culture Collection) was cultured in DMEM medium supplemented with 10% heat-inactivated fetal bovine serum (FBS, Invitogen, Grand Island, N.Y., USA) in a T-75 culture bottle (Greiner, Germany) in a incubator at 37° C., the relative humidity of 100%, and 5% CO2. When the cell culture in the culture bottle reached 80-90% confluency, it was digested with 0.25% Trypsin (with EDTA) for 3 min and inoculated into a 96-well cell culture plate at an inoculating density of 2000 cells/100 μl/well.
In the next day, when the cells in the 96-well culture plate grew up to 50-80% confluency, cell transfection was performed. The cell co-transfection system comprised the FuGene6 transfection agent (Roche Molecular Biochemicals, Indianapolis, Ind., U.S.A.) and 60 ng DNA (long of hRXR, 10 ng of pCMV βGal, 10 ng of the nuclear receptor expression plasmid RXR/PPARδ, 30 ng of GFP fluorescence reporter gene plasmid, respectively).
The cell culture medium was discarded immediately at 24 hours post-transfection and replaced by 200 μl of a fresh DMEM medium containing the medicament to be tested (with 10% FBS treated by activated carbon).
24 h after treatment with the medicament, the cells were lysed with a lysis solution (Cell Culture Lysis buffer, Promega) and centrifuged, and the supernatant was collected. The supernatant was treated with a fluorescence detection kit (Promega) and counted by a fluorescence meter (Ascent Fluoroskan FL reader, Thermo Labsystems, Finland), and the relative intensity of the luciferase was determined. For assaying the β-galactosidase activity used in the experiment as the inner reference (the inner reference calibrating for the transfection efficiency), 50 μl of the supernatant was transferred into a fresh microplate and treated with the Promega kit and read at a wavelength of 405 nm from a microplate reader (Bio-tech Instruments Inc., Winooski, Vt., USA) (Sauerberg, P.; Olsen, G. S.; Jeppesen, L.; Mogensen, J. P. et al., J. Med. Chem., 2007, 50, 1495-1503).
The median effective concentration (EC50) of a sample is a concentration at which the sample has 50% pharmacological effect. This value is one of the important parameters for evaluating pharmacological effects of a compound. In the present screening process, the EC50 of a sample was calculated according to the activation of the receptor by the sample at six different concentrations.

[8] = vs hyperlipidemia model control group
[9] = 2 weeks administration, 3.3 mg/kg
[10] = 2 weeks administration, 10 mg/kg
[11] = 4 weeks administration, 3.3 mg/kg
[12] = 4 weeks administration, 10 mg/kg

2-(3-methyl-4-(1-(3-(4-methyl-5-oxo-1-(4-trifluoromethyl-phenyl)-4,5-dihydrogen-1H-1,2,4-triazolyl))-benzyloxy)-phenylthio)-acetic acid [Compound A-3]
glucose tolerance in the obese animals [1]: significantly improve the glucose tolerance
bioavailability [2]: 86%
Food intake ([3]; column 1, 3.3 mg/kg): 5.22 g
Food intake ([3]; column 1, 10 mg/kg): 5.46 g
Food intake ([3]; column 2, 3.3 mg/kg): 5.04 g
Food intake ([3]; column 2, 10 mg/kg): 4.84 g
Food intake ([3]; column 3, 3.3 mg/kg): 6.06 g
Food intake ([3]; column 3, 10 mg/kg): 4.94 g
Food intake ([3]; column 4, 3.3 mg/kg): 5.1 g
Food intake ([3]; column 4, 10 mg/kg): 5.28 g
Food intake ([3]; column 5, 3.3 mg/kg): 6.275 g
Food intake ([3]; column 5, 10 mg/kg): 6.9 g
effect on the food intake of the animals [3]: no significant effect
body weight of the animals [3]: significantly decrease
Heart [4]: 26%
Kidney [4]: 9%
Liver [4]: 36%
Lung [4]: 16%
Spleen [4]: 13%
concentration of apoA-1 ([5]; ELISA, in words): significantly increased
concentration of apoB-100 ([5]; ELISA, in words): significantly decreased
insulin concentration ([5]; ELISA, in words): significantly decreased
high density lipoprotein (HDLc) increased [5, 8]: 67%
low density lipoprotein (LDLc) decreased [5, 8]: 38%
serum total cholesterol (TC) decreased [5, 8]: 45%
GLU [6, 9]: 9.52 ± 1.71
HDL [6, 9]: 3.31 ± 0.21
TC [6, 9]: 3.25 ± 2.76
TG [6, 9]: 0.19 ± 0.12
GLU [6, 10]: 6.54 ± 1.04
HDL [6, 10]: 2.94 ± 1.42
TC [6, 10]: 5.12 ± 0.65
TG [6, 10]: 0.18 ± 0.02
GLU [6, 11]: 9.54 ± 0.71
HDL [6, 11]: 3.1 ± 0.59
TC [6, 11]: 5.11 ± 0.31
TG [6, 11]: 0.07 ± 0.01
GLU [6, 12]: 6.6 ± 1.15
HDL [6, 12]: 2.89 ± 0.28
TC [6, 12]: 4.75 ± 0.57
TG [6, 12]: 0.11 ± 0.07
levels of TG and GLU in the sera from the model animals [6]: significantly decrease

Cc1cc(SCC(=O)O)c(C)cc1OC(c1ccccc1)c1nn(-c2ccc(C(F)(F)F)cc2)c(=O)n1C (stereo not drawn) [Compound A-11, 2-(2,5-dimethyl-4-(1-(3-(4-methyl-5-oxo-1-(4-trifluoromethyl-phenyl)-4,5-dihydrogen-1H-1,2,4-triazolyl))-benzyloxy)-phenylthio)-acetic acid]
glucose tolerance in the obese animals [1]: significantly improve the glucose tolerance
Food intake ([3]; column 1, 3.3 mg/kg): 6.0 g
Food intake ([3]; column 1, 10 mg/kg): 7.2 g
Food intake ([3]; column 2, 3.3 mg/kg): 5.0 g
Food intake ([3]; column 2, 10 mg/kg): 5.2 g
Food intake ([3]; column 3, 3.3 mg/kg): 5.8 g
Food intake ([3]; column 3, 10 mg/kg): 6.0 g
Food intake ([3]; column 4, 3.3 mg/kg): 6.2 g
Food intake ([3]; column 4, 10 mg/kg): 6.4 g
Food intake ([3]; column 5, 3.3 mg/kg): 6.9 g
Food intake ([3]; column 5, 10 mg/kg): 6.9 g
effect on the food intake of the animals [3]: no significant effect
body weight of the animals [3]: significantly decrease
EC50 [7]: < 1 nM
GLU [6, 9]: 8.85 ± 2.13
HDL [6, 9]: 3.25 ± 1.29
TG [6, 9]: 0.21 ± 0.08
GLU [6, 10]: 6.51 ± 1.61
HDL [6, 10]: 2.39 ± 1.36
TC [6, 10]: 4.51 ± 0.37
TG [6, 10]: 0.16 ± 0.06
GLU [6, 11]: 7.61 ± 0.5
HDL [6, 11]: 3.83 ± 0.1
TC [6, 11]: 5.84 ± 0.21
TG [6, 11]: 0.12 ± 0.05
GLU [6, 12]: 6.93 ± 0.3
HDL [6, 12]: 2.84 ± 1.09
TC [6, 12]: 5.28 ± 0.48
TG [6, 12]: 0.15 ± 0.05
levels of TG and GLU in the sera from the model animals [6]: significantly decrease

From US8822519B2, “Compound with agitation effect on peroxisome proliferator-activated receptor process for its preparation and use thereof” (Zhejiang Hisun Pharmaceutical Co., Ltd., priority 2008, dated 2014)
